According to patent US9422292B2, “Bromodomain inhibitors and uses thereof” (Constellation Pharmaceuticals, Inc., priority 2011, dated 2016):
Read-outs that look alike come from different tables or passages of the source.

How the values were obtained:
[1] = tested on: IL-6 secretion in THP-1 cells; assay: Cell-based IL-6 quantification assay (ELISA, Mesoscale) in LPS-treated THP-1 cells; details: Homo sapiens, LPS 4 μg/mL, 16 h, ELISA value/CellTiter-Glo ratio
Description: C. Cell-Based IL-6 Quantification Assay (ELISA, Mesoscale Assay):
100,000 THP-1 cells were seeded in RPMI1640-10% FBS in 96-well plates. LPS (E. Coli Invitrogen) in RPMI−10% FBS at a final concentration of 4 μg/mL was added to the wells and the cells are then incubated in the presence of various concentrations of compounds for 16 h. Plates are spun ([…], 5 min), an aliquot of 25 uL supernatant is transferred in to an ELISA plate (Mesoscale technology, MSD) and the detection of IL-6 is performed using manufacturer's instructions. The amount of cells in each well is assessed using CellTiter-Glo® (Promega). The ratio of ELISA value/CellTiter-Glo value is used to calculate the percent of inhibition of IL-6 secretion.

BRD4 (BD1) = target: T1, BRD4 (BD1) (Homo sapiens, UniProt O60885); assay: BRD4 AlphaLisa binding assay
T1 construct: His; made in house
Description: A. IC50 Measurements for Inhibitors Using BRD4 AlphaLisa Binding Assay.
Specifically, in a 384 well ProxiPlate BRD4 (BD1) (30 nM final) was combined with peptide (200 nM final) in 40 mM HEPES (pH 7.0), 40 mM NaCl, 1 mM DTT, 0.01% (w/v) BSA, and 0.008% (w/v) Brij-35 either in the presence of DMSO (final 1.2% DMSO) or compound dilution series in DMSO. After 20 minute incubation at room temperature Alpha streptavidin donor beads and AlphaLisa anti-Flag acceptor beads were added to a final concentration of 10 ug/mL each. After three hours equilibration plates were read on an Envision instrument and IC50s calculated using a four parameter non-linear curve fit.

[2] = tested on: MYC mRNA in MV4:11 (AML) cells; assay: cMyc RNA quantification assay (QuantiGene) in MV4:11 cells; format: cell-based; details: Homo sapiens, 4 h, QuantiGene 2.0
Description: B. cMyc RNA Quantification Assay (QuantiGene® Assay):
MV4:11 (AML) cells were seeded in a 96-well plate and incubated in the presence of various concentrations of compounds for 4 h. Relative mRNA levels were quantitated by using QuantiGene 2.0 assay (Affymetrix) according to the manufacturer's recommendation. Signals were detected by using an Envision plate reader (Perkin-Elmer). Biological duplicates were averaged and normalized to vehicle (DMSO) control to calculate percent MYC mRNA levels.

[3] = BRD4 (BD1) 30 nM, biotinylated H4-tetraacetyl peptide 200 nM, read-out: BRD4 AlphaLisa

IC50 [1]	IC50 (BRD4 (BD1); [3])	IC50 [2]	Structure (SMILES)	IC50 (BRD4 (BD1))
100 to 1000 nM	100 to 1000 nM	1000 to 10000 nM	Cc1nnc2n1-c1ccc(-c3ncccn3)cc1N(c1ccc(Cl)cc1)CC2 [Compound 21, 6-(4-chlorophenyl)-1-methyl-8-(pyrimidin-2-yl)-5,6-dihydro-4H-benzo[b][1,2,4]triazolo[4,3-d][1,4]diazepine]	–
< 100 nM	< 100 nM	< 100 nM	Cc1nnc2n1-c1ccc(-c3cn[nH]c3)cc1N(c1ccc(C#N)cc1)C[C@H]2C [Compound 80, (R)-4-(1,4-dimethyl-8-(1H-pyrazol-4-yl)-4H-benzo[b][1,2,4]triazolo[4,3-d][1,4]diazepin-6(5H)-yl)benzonitrile]	–
< 100 nM	< 100 nM	< 100 nM	Cc1nnc2n1-c1ccc(-c3ccc(=O)n(C)c3)cc1N(c1ccc(Cl)cc1)C[C@H]2C [Compound 62, (R)-5-(6-(4-chlorophenyl)-1,4-dimethyl-5,6-dihydro-4H-benzo[b][1,2,4]triazolo[4,3-d][1,4]diazepin-8-yl)-1-methylpyridin-2(1H)-one]	–
100 to 1000 nM	100 to 1000 nM	100 to 1000 nM	Cc1nnc2n1-c1ccc(-c3ccc(N)nc3)cc1N(c1ccc(C#N)cc1)CC2 [Compound 16, 4H-[1,2,4]triazolo[4,3-a][1,5]benzodiazepine, 5,6-dihydro-1-methyl-8-(6-aminopyridin-3-yl)-6-(4-cyano-phenyl)]	–
> 1000 nM	1000 to 10000 nM	1000 to 10000 nM	Cc1nnc2n1-c1ccc(Br)cc1N(c1ccc(S(C)(=O)=O)cc1)C[C@H]2C [Compound 77, (R)-8-bromo-1,4-dimethyl-6-(4-(methylsulfonyl)phenyl)-5,6-dihydro-4H-benzo[b][1,2,4]triazolo[4,3-d][1,4]diazepine]	–
< 100 nM	< 100 nM	100 to 1000 nM	Cc1nnc2n1-c1ccc(-c3cnn(C)c3)cc1N(c1ccc(C#N)cn1)C[C@H]2C [Compound 52, (R)-4H-[1,2,4]triazolo[4,3-a][1,5]benzodiazepine,5,6-dihydro-1,4-dimethyl-8-(1-methyl-1H-pyrazol-4-yl)-6-(5-cyanopyridin-2-yl)]	–
< 100 nM	< 100 nM	100 to 1000 nM	Cc1nnc2n1-c1ccc(-c3ccc(N)nc3)cc1N(c1ccc(Cl)cc1)CC2 [Compound 15, 5-(6-(4-chlorophenyl)-1-methyl-5,6-dihydro-4H-benzo[b][1,2,4]triazolo[4,3-d][1,4]diazepin-8-yl)pyridin-2-amine]	–
100 to 1000 nM	100 to 1000 nM	100 to 1000 nM	Cc1nnc2n1-c1ccc(Br)cc1N(c1ccc(Cl)cc1)C[C@H]2C [Compound 38, (R)-4H-[1,2,4]triazolo[4,3-a][1,5]benzodiazepine,5,6-dihydro-1,4-dimethyl-8-bromo-6-(4-chloro-phenyl)]	–
> 1000 nM	> 500 nM	1000 to 10000 nM	COc1ccc2c(n1)N(c1ccc(C#N)cc1)CC(C)c1nnc(C)n1-2 (stereo not drawn) [Compound 84, 4-(8-methoxy-1,4-dimethyl-4H-pyrido[2,3-b][1,2,4]triazolo[4,3-d][1,4]diazepin-6(5H)-yl)benzonitrile]	–
< 100 nM	< 100 nM	< 100 nM	Cc1nnc2n1-c1ccc(-c3cnc(N)cn3)cc1N(c1ccc(Cl)cn1)C[C@H]2C [Compound 83, (R)-5-(6-(5-chloropyridin-2-yl)-1,4-dimethyl-5,6-dihydro-4H-benzo[b][1,2,4]triazolo[4,3-d][1,4]diazepin-8-yl)pyrazin-2-amine]	–
< 100 nM	< 100 nM	< 100 nM	Cc1nnc2n1-c1ccc(-c3cnc(N)nc3)cc1N(c1ccc(Cl)cc1)C[C@H]2C [Compound 39, (R)-4H-[1,2,4]triazolo[4,3-a][1,5]benzodiazepine,5,6-dihydro-1,4-dimethyl-8-(2-aminopyrimidin-5-yl)-6-(4-chloro-phenyl)]	–

Structure (SMILES)	IC50 [1]	IC50 (BRD4 (BD1); [3])	IC50 [2]	IC50 (BRD4 (BD1))
Cc1nnc2n1-c1ccccc1N(c1ccc(Cl)cc1)CC2(C)C [Compound 3, 6-(4-chlorophenyl)-1,4,4-trimethyl-5,6-dihydro-4H-benzo[b][1,2,4]triazolo[4,3-d][1,4]diazepine]	100 to 1000 nM	–	1000 to 10000 nM	100 to 1000 nM
